Publication PMC6286348, “Inhibitor binding mode and allosteric regulation of Na^+-glucose symporters” (Nature Communications, 2018)
Positions count from the first letter of the chain named.

Assays:
hSGLT1 T395A = molecular target: T1, hSGLT1 T395A (Homo sapiens, UniProt P13866, T395A); test: SGLT current measurement in oocytes, hSGLT1 T395A; assay type: cell-based; conditions: effect on αMDG currents in 30 mM αMDG, 22 °C
T1 construct: expressed in transfected cells; host or cells: Xenopus laevis oocytes injected with cRNA
T1 sequence (P13866 1-664 T395A): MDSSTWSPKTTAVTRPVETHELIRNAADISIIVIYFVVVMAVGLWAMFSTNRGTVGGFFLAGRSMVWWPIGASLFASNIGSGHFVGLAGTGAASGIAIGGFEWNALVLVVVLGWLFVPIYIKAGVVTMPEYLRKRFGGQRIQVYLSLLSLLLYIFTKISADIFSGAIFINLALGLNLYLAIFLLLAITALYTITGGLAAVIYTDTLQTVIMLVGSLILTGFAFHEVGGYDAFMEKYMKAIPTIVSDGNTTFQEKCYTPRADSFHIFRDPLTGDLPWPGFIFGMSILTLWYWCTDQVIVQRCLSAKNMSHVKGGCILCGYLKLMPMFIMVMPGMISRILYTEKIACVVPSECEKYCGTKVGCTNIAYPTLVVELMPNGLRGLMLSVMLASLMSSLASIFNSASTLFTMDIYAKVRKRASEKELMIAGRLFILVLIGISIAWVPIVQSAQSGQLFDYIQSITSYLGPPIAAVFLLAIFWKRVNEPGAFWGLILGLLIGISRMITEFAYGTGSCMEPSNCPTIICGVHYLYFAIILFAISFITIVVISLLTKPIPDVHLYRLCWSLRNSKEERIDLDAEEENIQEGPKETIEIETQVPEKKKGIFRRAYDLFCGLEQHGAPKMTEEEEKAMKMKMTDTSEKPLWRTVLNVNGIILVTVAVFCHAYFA
Description: (§1) Xenopus laevis (Nasco) oocytes (V–VI) were prepared as previously described[20] and injected with 50 nl of cRNA (1 μg/μl). […] Briefly, oocytes were incubated for 30 min in the presence of 50 μM αMDG (5 μM [^14C]αMDG) in a buffer containing (in mM) 100 NaCl, 2 KCl, 1 MgCl2, 1 CaCl2, and 10 N-(2-hydroxyethyl)piperazine-N′-(2-ethanesulfonic acid) (HEPES)/Tris (pH 7.5). After incubation, oocytes were rinsed thoroughly with ice-cold buffer containing (mM) 100 choline Cl^–, 2 KCl, 1 MgCl2, 1 CaCl2, and 10 HEPES/Tris (pH 7.5), individually lysed with 5% sodium dodecyl sulfate, and assayed for radioactivity.
(§2) Injected oocytes were incubated at 18 °C, and after 3–4 days, two electrode voltage clamp experiments were performed as previously described. Briefly, SGLT inward glucose currents were measured as a function of the external Na^+ (0–100 mM NaCl), sugar (0–100 mM αMDG), and inhibitors (0.001–100 μM). Steady-state and hSGLT1 capacitive currents were recorded using voltage steps from a holding voltage, Vh of −60 mV, to voltages in the range of −180 to +50 mV in 20 mV increments. The apparent affinity of αMDG, K0.5, was estimated from plots of the inward current as a function of the external αMDG concentration. […] The Na^+-to-αMDG stoichiometry was determined from the reversal potential measurements using the Gibbs free energy as previously described. […]

hSGLT2 wild-type [1] = molecular target: T2, hSGLT2 wild-type (Homo sapiens, UniProt P31639); test: SGLT current measurement in oocytes, hSGLT2 wild-type (MAP17 co-injected); assay type: cell-based; parameters: expressed in transfected cells; host or cells: Xenopus laevis oocytes injected with hSGLT2 cRNA and MAP17 cRNA; conditions: 22 °C
T2 sequence (P31639 1-672): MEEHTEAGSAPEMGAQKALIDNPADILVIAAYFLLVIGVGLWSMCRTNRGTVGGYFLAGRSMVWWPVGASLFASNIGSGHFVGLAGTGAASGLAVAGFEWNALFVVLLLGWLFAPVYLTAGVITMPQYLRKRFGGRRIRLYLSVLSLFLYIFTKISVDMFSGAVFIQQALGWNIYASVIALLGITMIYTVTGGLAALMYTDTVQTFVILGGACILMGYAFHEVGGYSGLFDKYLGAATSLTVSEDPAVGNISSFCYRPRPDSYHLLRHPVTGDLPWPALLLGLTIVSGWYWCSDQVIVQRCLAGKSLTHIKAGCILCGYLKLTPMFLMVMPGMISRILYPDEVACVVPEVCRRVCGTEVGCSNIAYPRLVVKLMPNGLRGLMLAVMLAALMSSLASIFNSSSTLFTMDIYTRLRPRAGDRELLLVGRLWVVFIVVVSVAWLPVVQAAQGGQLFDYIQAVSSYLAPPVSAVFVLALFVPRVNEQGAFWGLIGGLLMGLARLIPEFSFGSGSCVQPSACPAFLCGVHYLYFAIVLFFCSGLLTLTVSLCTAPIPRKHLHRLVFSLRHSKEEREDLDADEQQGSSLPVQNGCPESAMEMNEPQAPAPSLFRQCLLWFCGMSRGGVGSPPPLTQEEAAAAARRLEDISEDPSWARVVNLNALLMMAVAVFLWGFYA
T2 sequence (Q13113 1-114 partner): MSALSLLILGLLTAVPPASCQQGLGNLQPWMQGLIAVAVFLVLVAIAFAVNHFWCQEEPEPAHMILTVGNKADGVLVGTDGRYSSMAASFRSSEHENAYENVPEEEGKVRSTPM
Description: as §1
(§3) Injected oocytes were incubated at 18 °C, and after 3–4 days, two electrode voltage clamp experiments were performed as previously described. Briefly, SGLT inward glucose currents were measured as a function of the external Na^+ (0–100 mM NaCl), sugar (0–100 mM αMDG), and inhibitors (0.001–100 μM). Steady-state and hSGLT1 capacitive currents were recorded using voltage steps from a holding voltage, Vh of −60 mV, to voltages in the range of −180 to +50 mV in 20 mV increments. The apparent affinity of αMDG, K0.5, was estimated from plots of the inward current as a function of the external αMDG concentration. Under our experimental conditions, K0.5 is a close approximation of the αMDG binding constant to the Na^+-bound outward conformation of SGLT. The apparent affinity for Na^+, K0.5, was estimated from plots of the αMDG inward current as a function of external Na^+ concentration. For hSGLT1 the interpretation of K0.5 is more complex owing to the presence of two Na^+ binding sites. In this case, the K0.5 is a lumped coefficient for Na^+ binding to the two sites in the outward-facing hSGLT1 conformation. […] The Na^+-to-αMDG stoichiometry was determined from the reversal potential measurements using the Gibbs free energy as previously described. The stoichiometry determinations were reinforced by estimates of αMDG and Na^+ Hill coefficients, and in some cases, by measurement of ^22Na and [^14C]αMDG uptakes under voltage clamp, [21].

hSGLT1 wild-type = molecular target: T3, hSGLT1 wild-type (Homo sapiens, UniProt P13866); test: SGLT current measurement (two electrode voltage clamp) in oocytes, hSGLT1 wild-type; assay type: cell-based; conditions: inhibition of αMDG currents (100 mM NaCl) or capacitive currents, 22 °C
T3 construct: expressed in transfected cells; host or cells: Xenopus laevis oocytes injected with cRNA
T3 sequence (P13866 1-664): T1 sequence (P13866 1-664 T395A) with A395T
Description: as §1, §2

hSGLT2 A395T = molecular target: T4, hSGLT2 A395T (Homo sapiens, UniProt P31639, A395T); test: cell-based; conditions: poor expression; n = 3 oocytes (n = 2 for dapa-aglycon)
T4 construct: expressed in transfected cells; host or cells: Xenopus laevis oocytes injected with hSGLT2 A395T cRNA and MAP17 cRNA
Description: as §1, §3

hSGLT1 D268H = molecular target: T5, hSGLT1 D268H (Homo sapiens, UniProt P13866, D268H); test: SGLT current measurement in oocytes, hSGLT1 D268H; assay type: cell-based; conditions: D268H vs wild type
T5 construct: expressed in transfected cells; host or cells: Xenopus laevis oocytes injected with cRNA
T5 sequence (P13866 1-664 D268H): T1 sequence (P13866 1-664 T395A) with D268H, A395T
Description: as §1, §2

hSGLT2 wild-type [2] = molecular target: T2, hSGLT2 wild-type; conditions: cited from earlier work

T4 sequence (P31639 whole entry A395T, one chain of several): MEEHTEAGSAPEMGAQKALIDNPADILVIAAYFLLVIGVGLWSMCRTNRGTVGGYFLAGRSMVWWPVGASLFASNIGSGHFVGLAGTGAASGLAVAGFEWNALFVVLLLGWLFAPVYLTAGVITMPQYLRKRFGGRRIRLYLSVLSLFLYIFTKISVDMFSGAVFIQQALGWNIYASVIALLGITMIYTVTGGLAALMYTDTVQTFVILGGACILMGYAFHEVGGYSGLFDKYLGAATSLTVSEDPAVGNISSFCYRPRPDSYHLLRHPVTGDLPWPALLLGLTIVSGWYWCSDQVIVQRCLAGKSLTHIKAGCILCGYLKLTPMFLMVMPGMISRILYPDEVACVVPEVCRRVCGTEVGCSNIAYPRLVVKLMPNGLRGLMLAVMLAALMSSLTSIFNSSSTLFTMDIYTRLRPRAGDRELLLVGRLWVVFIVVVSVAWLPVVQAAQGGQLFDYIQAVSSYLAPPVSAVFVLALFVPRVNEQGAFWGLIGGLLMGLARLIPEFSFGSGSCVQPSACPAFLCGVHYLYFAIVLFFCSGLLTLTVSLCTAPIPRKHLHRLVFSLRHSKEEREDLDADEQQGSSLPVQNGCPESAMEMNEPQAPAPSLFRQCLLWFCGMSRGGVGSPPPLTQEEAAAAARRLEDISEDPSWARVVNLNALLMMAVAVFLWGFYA

| SMILES | Ki (hSGLT1 T395A) | Ki (hSGLT2 wild-type [1]) | Ki (hSGLT1 wild-type) | Ki (hSGLT2 A395T) | decrease of Ki vs wild-type hSGLT1 (hSGLT1 D268H) | higher potency for hSGLT2 (vs hSGLT1) (hSGLT2 wild-type [2]) |
| --- | --- | --- | --- | --- | --- | --- |
| CCOc1ccc(Cc2cc(O)ccc2Cl)cc1 [dapa-aglycon] | 187 ± 80 µM | 110 ± 30 µM | 425 ± 50 µM | > 600 µM |  |  |
| CCOc1ccc(Cc2cc([C@@H]3O[C@H](CO)[C@@H](O)[C@H](O)[C@H]3O)ccc2Cl)cc1 [dapagliflozin] |  |  |  |  | 13 fold | > 100 fold |
| O=C(CCc1ccc(O)cc1)c1c(O)cc(O)cc1O [phloretin] |  | 27 ± 3 µM |  | 129 ± 70 µM |  |  |
